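Each compound was tested at five concentrations against cells in 96-well plates for 48 hours. At the TGI there is no net growth.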
What was measured:
Assay in all cases: NCI anticancer screen, dose series, 48 h
COLO 205 colon = system: COLO 205 colon
ACHN renal = system: ACHN renal
OVCAR-4 ovarian = system: OVCAR-4 ovarian
SK-MEL-5 melanoma = system: SK-MEL-5 melanoma
OVCAR-5 ovarian = system: OVCAR-5 ovarian
UACC-257 melanoma = system: UACC-257 melanoma
RPMI-8226 leukemia = system: RPMI-8226 leukemia
HOP-62 NSCLC = system: HOP-62 NSCLC
PC-3 prostate = system: PC-3 prostate
SNB-19 CNS = system: SNB-19 CNS
SK-MEL-28 melanoma = system: SK-MEL-28 melanoma
NCI-H226 lung = system: NCI-H226 lung
A498 renal = system: A498 renal
EKVX NSCLC = system: EKVX NSCLC
U251 CNS = system: U251 CNS
HCC-2998 colon = system: HCC-2998 colon
T-47D breast = system: T-47D breast
MOLT-4 leukemia = system: MOLT-4 leukemia
OVCAR-3 ovarian = system: OVCAR-3 ovarian
A549 NSCLC = system: A549 NSCLC
SF-539 CNS = system: SF-539 CNS
NCI/ADR-RES ovarian = system: NCI/ADR-RES ovarian
SF-295 CNS = system: SF-295 CNS
MDA-N = system: MDA-N
SK-MEL-2 melanoma = system: SK-MEL-2 melanoma
NCI-H460 lung = system: NCI-H460 lung
DU-145 prostate = system: DU-145 prostate
KM12 colon = system: KM12 colon
MDA-MB-435 = system: MDA-MB-435
SK-OV-3 ovarian = system: SK-OV-3 ovarian
SW-620 colon = system: SW-620 colon
CAKI-1 renal = system: CAKI-1 renal

Structure (SMILES): CN(C)c1ccc(/C=c2/c3ccccc3n3c2cc(-c2ccc(Cl)cc2)[n+]3C)cc1
- TGI (COLO 205 colon): 211 nM
- TGI (ACHN renal): 1460 nM
- TGI (OVCAR-4 ovarian): 2510 nM
- TGI (SK-MEL-5 melanoma): 362 nM
- TGI (OVCAR-5 ovarian): 2330 nM
- TGI (UACC-257 melanoma): 1080 nM
- TGI (RPMI-8226 leukemia): 566 nM
- TGI (HOP-62 NSCLC): 1480 nM
- TGI (PC-3 prostate): 1010 nM
- TGI (SNB-19 CNS): 1330 nM
- TGI (SK-MEL-28 melanoma): 1900 nM
- TGI (NCI-H226 lung): 1680 nM
- TGI (A498 renal): 3.45 µM
- TGI (EKVX NSCLC): 2410 nM
- TGI (U251 CNS): 1090 nM
- TGI (HCC-2998 colon): 1950 nM
- TGI (T-47D breast): 1380 nM
- TGI (MOLT-4 leukemia): > 100 µM
- TGI (OVCAR-3 ovarian): 1340 nM
- TGI (A549 NSCLC): 1870 nM
- TGI (SF-539 CNS): 748 nM
- TGI (NCI/ADR-RES ovarian): > 89.3 µM
- TGI (SF-295 CNS): 1770 nM
- TGI (MDA-N): 1230 nM
- TGI (SK-MEL-2 melanoma): 845 nM
- TGI (NCI-H460 lung): 656 nM
- TGI (DU-145 prostate): 1130 nM
- TGI (KM12 colon): 264 nM
- TGI (MDA-MB-435): 1180 nM
- TGI (SK-OV-3 ovarian): 1450 nM
- TGI (SW-620 colon): 1310 nM
- TGI (CAKI-1 renal): 782 nM
